{"source": "patent US7232809B2", "about": "“Mitochondrially targeted antioxidants” (Antipodean Pharmaceuticals, Inc., priority 1997, dated 2007)", "key": {"[1]": {"system": "rat liver mitochondria", "assay": "Uptake of [3H] compound 1 by energised rat liver mitochondria"}, "[2]": {"system": "rat brain homogenates", "assay": "Inhibition of lipid peroxidation in rat brain homogenates (TBARS assay)", "format": "biochemical", "details": "TBARS, read-out: concentration that inhibited oxidative stress by 50%", "description": "The rat brain homogenates were incubated with or without various concentrations of the test compounds (compound 1; native Vitamin E (α-tocopherol), bromobutyl triphenylphosphonium bromide, Trolox (a water soluble form of Vitamin E) and compound 2, ie2-(2-bromoethyl)-3,4-dihydro-2,5,7,8-tetramethyl-2H-1-benzopyran-6-ol, the precursor of compound 1 (“Brom Vit E”)) and the oxidative damage occurring over the incubation was quantitated using the TBARS assay (Stocks et al., 1974, Clin Sci Mol Med 47,215–222). From this the concentration of compound required to inhibit oxidative damage by 50% was determined. In this system 210 nM compound 1 inhibited oxidative stress by 50% while the corresponding value for native Vitamin E was 36 nM. The value for bromobutyltriphenylphosphonium bromide, which contains the triphenylphosphonium moiety but not the antioxidant Vitamin E moiety was 47 μM. […] Further details of the experimental procedures and results are set out below.\n(§1) The IC50 values for inhibition of lipid peroxidation were determined in rat brain homogenates, and are means±SEM or range of determinations on 2–3 brain preparations. Octan-1-ol/PBS partition coefficients are means±SEM for three independent determinations. N.D. not determined. Partition coefficients were determined by mixing 200 μM of the compound in 2 ml water-saturated octanol-1-ol with 2 ml octanol-saturated-PBS at room temperature for 1 h, then the two layers were separated by brief centrifugation and their concentrations determined spectrophotometrically from standard curves prepared in PBS or octanol. To measure antioxidant efficacy four rat brains were homogenised in 15 ml 40 mM potassium phosphate (pH 7.4), 140 mM NaCl at 4° C., particulate matter was pelleted (1,000×g at 4° C. for 15 min) and washed once and the combined supernatants stored frozen. Aliquots were rapidly thawed and 5 mg protein suspended in 800 μl PBS containing antioxidant or ethanol carrier and incubated at 37° C. for 30 min. Thiobarbituric acid reactive species (TBARS) were quantitated at 532 nm by adding 200 μl conc. HClO4 and 200 μl 1% thiobarbituric acid to the incubation, heating at 100° C. for 15 min and then cooling and clarification by centrifugation (10,000×g for 2 min)."}, "[3]": {"assay": "Octan-1-ol/PBS partition coefficient", "format": "physicochemical", "details": "200 μM, room temperature, 1 h, means±SEM of three", "description": "as §1"}, "[4]": {"system": "rat liver mitochondria", "assay": "Protection of mitochondrial function (membrane potential) from iron/ascorbate oxidative damage", "format": "biochemical", "details": "5 μM, compared with Vitamin E", "description": "Energised rat liver mitochondria were incubated with iron/ascorbate with no additions (stippled bars), 5 μM compound 1 (filled bars), 5 μM α-tocopherol. (open bars) or 5 μM TPMP (cross hatched bars), and then isolated and the membrane potential generated by respiratory substrates measured relative to control incubations in the absence of iron/ascorbate. Rat liver mitochondria were incubated at 25° C. in a shaking water bath in 2 ml medium containing 100 mM KCl, 10 mM Tris, pH 7.7, supplemented with rotenone (1.33 μg/ml), 10 mM succinate, 500 μM ascorbate and other additions. […] TPMP either 10 mM glutamate and malate, 10 mM succinate and rotenone, or 5 mM ascorbate/100 μM TMPD with rotenone and myxothiazol (2 μg/ml), incubated at 25° C. for 3 min then pelleted and the membrane potential determined as above and compared with an incubation that had not been exposed to oxidative stress."}, "[5]": {"system": "rat liver mitochondria", "assay": "Protection of mitochondria against oxidative damage (TBARS, protein carbonyls)", "format": "biochemical", "description": "Mitochondria were exposed to oxidative stress by incubation with iron/ascorbate and the effect of compound 1 on oxidative damage assessed by measuring TBARS (filled bars) and protein carbonyls (open bars). Rat liver mitochondria (10 mg protein) were incubated at 25° C. in a shaking water bath in 2 ml medium containing 100 mM KCl, 10 mM Tris, pH 7.7, supplemented with rotenone (1.33 μg/ml), 10 mM succinate, 500 μM ascorbate and other additions. After preincubation for 5 min, 100 μM FeSO4 was added and 45–55 min later duplicate samples were removed and assayed for TBARS or protein carbonyls.\nEnergised rat liver mitochondria were exposed to tert-butylhydroperoxide and the effect of compound 1 (filled bars), α-tocopherol (open bars), compound 1+333 nM FCCP (stippled bars) or the simple lipophilic cation bromobutyl triphenylphosphonium (cross hatched bars) on TBARS formation determined."}, "[6]": {"system": "rat liver mitochondria", "assay": "Effect of compound 1 on membrane potential and respiration rate of isolated mitochondria", "details": "at the concentrations that afford protection", "method": "TPMP at 25° C. for 3 min. After the incubation mitochondria were pelleted by centrifugation and the [^3H] TPMP in the supernatant and pellet quantitated by scintilation counting and the membrane potential calculated assuming a volume of 0.5 μl/mg proteins and that 60% of intramitochondrial TPMP is membrane bound."}, "[7]": {"system": "143B cells", "assay": "Uptake of compound 1 by intact cells", "format": "cell-based, human", "description": "The mitochondrial specific accumulation of compound 1 also occurs in intact cells. This was measured as described by Burns and Murphy, 1997 and the accumulation was prevented by dissipating both the mitochondrial and plasma membrane potentials. […] Therefore the accumulation of compound 1 into cells is driven by the mitochondrial membrane potential.\n(§2) The next step was to determine whether compound 1 was accumulated by intact cells. […] A proportion of this uptake of compound 1 into cells was inhibited by blocking the plasma and mitochondrial membrane potentials (FIG. 9). This energisation-sensitive uptake corresponds to an intra mitochondrial concentration of compound 1 of about 2–4 mM, which is sufficient to protect mitochondria from oxidative damage.\nHere 10^6 143B cells (closed symbols) or ρ° cells (open symbols) were incubated with 1 μM [3H] compound 1 and the compound 1 accumulation ratio determined. Human osteosarcoma 143B cells and a derived ρ° cell line lacking mitochondrial DNA were cultured in DMEM/10% FCS (foetal calf serum) supplemented with uridine and pyruvate under an atmosphere of 5% CO2/95% air at 37° C., grown to confluence and harvested for experiments by treatment with trypsin. To measure [^3H] compound 1 accumulation cells (10^6) were incubated in 1 ml HEPES-buffered DMEM. At the end of the incubation, cells were pelleted by centrifugation, the cell pellet and the supernatant prepared for scintillation counting and the accumulation ratio [compound 1/mg protein)/(compound 1/μl)]calculated.\nHuman osteosarcoma 143B cells were incubated in 1 ml HEPES-buffered DMEM with 1-50 μM compound 1 supplemented with 6–60 nCi/ml [^3H] compound 1. To determine the energistration-dependent uptake, parallel incubations with 12.5 μM oligomycin, 20 μM FCCP; 10 μM myxathiazol. 100 nM valinomycin and 1 mM ouabain were carried out. At the end of the incubation, cells were pelleted by centrifugation and prepared for scintillation counting and the energisation-sensitive uptake determined."}, "[8]": {"system": "143B cells", "assay": "Cell viability by lactate dehydrogenase release", "format": "cell-based, human", "details": "24 h, LDH release, concentrations giving 2–4 mM intramitochondrial", "description": "as §2\nHere, confluent 143B cells in 24 well tissue culture dishes were incubated with various concentrations of compound 1 for 24 h and cell viability measured by lactate dehydrogenase release."}}, "data": [{"smiles": "Cc1c(C)c2c(c(C)c1O)CCC(C)(CC[P+](c1ccccc1)(c1ccccc1)c1ccccc1)O2", "note": "(centres unmarked) [compound 1]", "values": [{"measurement": "time for reversal of accumulation by FCCP", "setting": "[1]; FCCP added after accumulation", "value": "< 10", "unit": "s"}, {"measurement": "effect of uncoupler FCCP on accumulation into mitochondria", "setting": "[1]; addition of FCCP", "value": "blocked"}, {"measurement": "time for uptake into mitochondria", "setting": "[1]; energised rat liver mitochondria", "value": "< 10", "unit": "s"}, {"measurement": "accumulation ratio into mitochondria", "setting": "[1]; energised rat liver mitochondria, membrane potential about 180 mV", "value": "about 6,000"}, {"measurement": "proportion membrane-bound within mitochondria", "setting": "[1]; inferred from uptake of TPMP and compound 1 at the same membrane potential", "value": "about 84%"}, {"measurement": "intramitochondrial concentration", "setting": "[1]; isolated mitochondria, range of concentrations of compound 1 (FIG. 2)", "value": "4 to 8", "unit": "mM"}, {"measurement": "slope of accumulation ratio of compound 1 relative to that of TPMP", "setting": "[1]; range of membrane potentials, 10 μM compound 1, 1 μM TPMP, 3 min", "value": 2.472}, {"measurement": "IC50", "setting": "[2]", "value": 210, "unit": "nM"}, {"measurement": "Octanol:PBS partition coefficient", "setting": "[3]", "value": "7.37 ± 1.56"}, {"measurement": "protection of mitochondrial function (ability to generate a membrane potential)", "setting": "[4]", "value": "far more effectively than Vitamin E itself"}, {"measurement": "protection of mitochondria against oxidative damage (lipid peroxidation and protein carbonyl formation)", "setting": "[5]; mitochondria exposed to oxidative stress", "value": "protected them against oxidative damage"}, {"measurement": "antioxidant protection with uncoupler FCCP", "setting": "[5]; mitochondria incubated with FCCP to prevent uptake", "value": "prevented"}, {"measurement": "damage to mitochondria", "setting": "[6]", "value": "not damaging to mitochondria"}, {"measurement": "intra mitochondrial concentration from energisation-sensitive uptake", "setting": "[7]; 143B cells, 1 h incubation", "value": "2 to 4", "unit": "mM"}, {"measurement": "accumulation by cells containing defective mitochondria", "setting": "[7]; cells without mitochondrial membrane potential", "value": "not accumulated"}, {"measurement": "accumulation by intact cells", "setting": "[7]; intact 143B cells", "value": "rapidly accumulated"}, {"measurement": "toxicity to cells", "setting": "[8]", "value": "not toxic to cells"}]}]}
